Consider twelve molecules from PubChem BioAssay (NCI).

Common to all, as to experiment: growth of human tumour cells (NCI), 48 h
The test system of assay [1] is RPMI-8226 leukemia.
Assay [2] has as its system COLO 205 colon.
Assay [3] relates to SW-620 colon.
Assay [4] deals with SNB-19 CNS.
Assay [5] deals with NCI/ADR-RES ovarian.
Assay [6] relates to OVCAR-4 ovarian.
Assay [7] concerns 786-0 renal.
The subject of assay [8] is NCI-H460 lung.
Assay [9] relates to SR leukemia.
Assay [10] has as its system HL-60(TB) leukemia.
Assay [11] deals with RXF 393 renal.
Assay [12] deals with HT29 colon.
Assay [13] has as its system HOP-62 NSCLC.
Assay [14] deals with UO-31 renal.
In assay [15] the test system is T-47D breast.
Assay [16] has as its system A498 renal.
Assay [17] relates to SK-MEL-5 melanoma.
Assay [18] concerns K-562 leukemia.

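In this assay, cells in 96-well plates receive the compound at five concentrations for 48 hours. Endpoints are linearly interpolated between the surrounding concentrations. TGI: concentration producing complete growth inhibition.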 Bounds are passed on as bounds.

As for `C=CC[C@]1(C2=NC(C)(C)CO2)c2ccccc2-c2ccccc2[C@H]1C(C)=O`, the TGI was 33.5 µM in [1]; 15 µM in [2]; 34.4 µM in assay [3]; 34.7 µM in assay [4]; 22.7 µM in [5]; above 69 µM in assay [6]. For the same molecule, the TGI is 24.9 µM in assay [7]; 19.3 µM in assay [8]; 14 µM in assay [9]; 15.8 µM in assay [10]; 15.8 µM in [11]; 17.3 µM in [12]. Also, the TGI was 32.7 µM in assay [13]; 28 µM in assay [14]; above 69.5 µM in assay [15]; 21.1 µM in assay [16]; 12.7 µM in assay [17]; 29.8 µM in assay [18].

For `CCOC(=O)c1nc2cc(C(F)(F)F)ccc2nc1Oc1ccc(F)cc1`, the TGI in assay [1], in [2], in assay [3], in assay [4], in [5] and in [6] was above 100 µM each time. The TGI in assay [7], in assay [8], in assay [9], in assay [10], in [11] and in [14] was above 100 µM in each case. Also, the TGI in [15], in assay [16], in assay [17] and in assay [18] was above 100 µM throughout.

As to `C=CCn1c(-c2ccc(Cl)cc2)csc1=Nc1ccccc1OC`, the TGI in [1] was above 100 µM; in [2], above 100 µM; in assay [3], above 100 µM; in assay [4], above 100 µM; in assay [5], above 91.6 µM; in assay [6] it was above 100 µM. Also, the TGI was above 100 µM in assay [7]; above 100 µM in assay [8]; above 100 µM in assay [9]; 86.3 µM in assay [10]; above 100 µM in [11]; above 100 µM in assay [13]. Besides, the TGI in assay [14] was above 100 µM; in assay [15], 8.5 µM; in assay [16], above 100 µM; in [17], 8.11 µM; in [18], 19.4 µM.

For the molecule `C/C(=N\NC(N)=S)c1sc(-n2nc(-c3ccccc3)cc2-c2ccccc2)nc1C`, the TGI was 61.2 µM in assay [1]; above 100 µM in assay [2]; above 100 µM in assay [3]; above 100 µM in assay [4]; above 100 µM in [5]; above 100 µM in [6]. Besides, the TGI in assay [7], in assay [8], in [9], in assay [10], in assay [11] and in [12] was above 100 µM in each case. Further, the TGI in assay [13], in assay [14], in [15], in assay [16] and in assay [17] was above 100 µM throughout.

On to `CC(=O)c1c(O)n(-c2ccc(C)cc2)c(=O)c2c(N)n[nH]c12`, for which the TGI in assay [1], in assay [2], in assay [3], in [4], in [5] and in assay [6] was above 100 µM throughout. For the same molecule, the TGI in [7], in assay [8], in assay [9], in assay [10], in assay [11] and in [12] was above 100 µM each time. Besides, the TGI in assay [14], in assay [15], in [16], in [17] and in assay [18] was above 100 µM throughout.

For the molecule `Cc1cc(N(CCC#N)CCC#N)ccc1/C(N=Nc1ccc([N+](=O)[O-])cc1)=N\NC(=O)c1ccccc1`, the TGI in [1], in assay [2], in assay [4], in [5], in assay [6] and in [7] was above 100 µM each time. Further, the TGI in assay [8] was above 100 µM; in assay [9], above 100 µM; in [10], above 100 µM; in [11], above 100 µM; in [12] it was 71.4 µM; in [13], above 100 µM. In addition, the TGI in [14] was above 100 µM; in assay [15], 97.1 µM; in assay [16], 74 µM; in assay [17], above 100 µM; in [18], above 100 µM.

With `CCC(=O)Nc1ccc(NCC(=O)Nc2ccc(OC)cc2)cc1`, the TGI in assay [1] is 90.5 µM; in assay [2], above 100 µM; in assay [3], above 100 µM; in assay [4] it was 31.3 µM; in assay [5], 85.7 µM; in assay [6], 35.2 µM. The TGI is 46.4 µM in assay [7]; above 100 µM in assay [9]; above 100 µM in assay [10]; 35.2 µM in [11]; above 100 µM in assay [12]; 11.6 µM in assay [13]. For the same molecule, the TGI is above 100 µM in [14]; 70.1 µM in assay [15]; 87.9 µM in [16]; 32.7 µM in [17]; above 100 µM in [18].

Consider `O=c1[nH]nc(-c2ccc(F)cc2)cc1-c1ccccc1`, for which the TGI in [1], in assay [2], in assay [3], in assay [4], in assay [5] and in assay [6] was above 100 µM throughout. The TGI in assay [7], in assay [8], in assay [9], in assay [10], in [11] and in assay [12] was above 100 µM in each case. The TGI in assay [15], in assay [16], in assay [17] and in [18] was above 100 µM throughout.

As for `CC(=O)O[C@H]1C(=O)[C@@]2(C)[C@H]([C@H](OC(=O)c3ccccc3)[C@]3(O)C[C@H](OC(=O)[C@H](O)[C@@H](NC(=O)c4ccc(N(C)C)cc4)c4ccccc4)C(C)=C1C3(C)C)[C@]1(OC(C)=O)CO[C@@H]1C[C@@H]2O`, the TGI in assay [1] is 0.00795 µM; in [3] it was above 50 µM; in assay [4], above 50 µM; in [5], 16.7 µM; in assay [6] it was above 50 µM; in assay [7], above 50 µM. Besides, the TGI in [9] is above 18.5 µM; in [10], 0.00566 µM; in [11], 0.226 µM; in assay [13], above 50 µM; in assay [14], above 50 µM; in assay [15], above 50 µM. Also, the TGI is above 50 µM in [16] and above 22.1 µM in assay [17].

For the molecule `CCOC(=O)C1(C(=O)OCC)C=C(c2ccccc2)N(C2OC(COC(C)=O)C(OC(C)=O)C(OC(C)=O)C2OC(C)=O)C1=S` (stereo not given), the TGI is 44.3 µM in assay [1]; above 100 µM in [2]; above 100 µM in assay [3]; above 100 µM in assay [4]; above 100 µM in assay [5]; above 100 µM in assay [6]. For the same molecule, the TGI in [7] is above 100 µM; in [8], above 100 µM; in assay [9], above 100 µM; in [10], 81.5 µM; in [11], above 100 µM; in [12], above 100 µM. The TGI in [13], in assay [14], in assay [15], in assay [16] and in assay [17] was above 100 µM each time.

On to `C#CC(O)/C=C/C(O)CCCC(O)CC#CC(O)C#CCCCCC(O)/C=C/CCCC(O)/C=C/CCCCCCCCCCCCCC(O)C(O)C#CC(=O)O` (stereo not given), for which the TGI in assay [1], in assay [2], in [4], in assay [5], in [6] and in assay [7] was above 25 µM each time. For the same molecule, the TGI in assay [8], in assay [9], in assay [10], in [11], in [12] and in [13] was above 25 µM in each case. The TGI in [14], in assay [15], in assay [16], in [17] and in assay [18] was above 25 µM in each case.

`CCN(CC)CCN1C(=O)C(=O)N(c2cccc3ccccc23)C1=O`: the TGI in [1], in assay [2], in assay [3], in [4], in assay [5] and in assay [6] was above 10 µM in each case. For the same molecule, the TGI in [8], in [9], in assay [10], in assay [11], in assay [12] and in assay [13] was above 10 µM in each case. The TGI in assay [14], in assay [15], in assay [16], in assay [17] and in assay [18] was above 10 µM each time.
